According to patent US9752125B2, “Differentiation of human embryonic stem cells” (priority 2010, dated 2017):

Test system: human embryonic stem cells line H1
Assay: IN Cell Analyzer imaging of PDX1, NKX6.1 and CDX2 expressing cells at stage 4 day 4 (Example 1)
Format: cell-based
Procedure: Treatment 1: DMEM-High glucose+1% B27 for four days (stage 4-basal media-BM), or […].
Parallel populations of Stage 3 cells were also treated with the following protein kinase C activators—phorbol-12-myristate-13-acetate (PMA) at a concentration of 20 nM (Calbiochem #524400), or [(2S, 5S)-(E, E)-8-(5-(4-(Trifluoromethyl)pheny)-2,4-pentadienoylamino)benzolactam] (TPB) at a concentration of 50 nM (Calbiochem #565740), substituted for PDBu in treatment 3 above. At the end of stage 4, day 4, 91% of the cells of the population treated with PMA, and 90% of the cells of the population treated with TPB expressed NKX6.1.

[1] = PKC activator 20 nM in DMEM-High glucose+1% B27+100 ng/ml Noggin+1 μM ALK5 inhibitor II for four days

Row | Molecule | percentage of total population expressing NKX6.1 [1] | percentage of total population expressing NKX6.1 (TPB 50 nM substituted for PDBu in treatment 3)
1 | CCCC(=O)O[C@@H]1[C@@H](C)[C@@]2(O)[C@@H](C=C(CO)C[C@]3(O)C(=O)C(C)=C[C@@H]23)[C@@H]2C(C)(C)[C@]12OC(=O)CCC [PDBu, phorbol-12,13-dibutyrate] | 88%±4.2 | 
2 | CCCCCCCCCCCCCC(=O)O[C@@H]1[C@@H](C)[C@@]2(O)[C@@H](C=C(CO)C[C@]3(O)C(=O)C(C)=C[C@@H]23)[C@@H]2C(C)(C)[C@]12OC(C)=O [PMA, phorbol-12-myristate-13-acetate] | 91% | 
3 | (2S, 5S)-(E, E)-8-(5-(4-(Trifluoromethyl)phenyl)-2,4-pentadiemoylamino) benzolactam [TPB] |  | 90%
